Assay results as given in the METLIN SMRT retention time set (Domingo-Almenara et al. 2019).

Assay: gradient 5% acetonitrile 3 min, to 50% in 2 min, to 85% in 15 min, held 3 min, 100 µL/min
Settings: column: Zorbax Extend-C18 2.1 x 50 mm; eluents: water / acetonitrile, 0.1% formic acid
Method in brief: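 Over 3 months, pure standards in mixtures of ~100 molecules were run by HPLC coupled to a quadrupole time-of-flight mass spectrometer in positive and negative ionization mode. The column was a Zorbax Extend-C18 (2.1 × 50 mm, 1.8 μm) at 100 μL/min, eluted with water and acetonitrile each holding 0.1% formic acid, with 40 μL dead and 900 μL dwell volumes. Retention time was determined from adduct peaks chosen by software and checked manually.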

Cc1ccc(S(=O)(=O)N2C(=O)CCC2C(=O)Nc2cccc(C)c2C)cc1C (configuration not stated)
RP-LC retention time: 976 s

Cc1ccc(NC(=O)Cn2cnc3nc(N4CCCC(C(=O)NC5CC5)C4)sc3c2=O)cc1C (configuration not stated)
RP-LC retention time: 693 s

Cn1cnc(S(=O)(=O)N2CCC(c3noc(-c4ccccc4)n3)C2)c1 (configuration not stated)
RP-LC retention time: 748 s

COc1cc(Cl)ccc1-c1nc(-c2cccc(-c3ccn[nH]3)c2)no1
RP-LC retention time: 1060 s

Cc1ccc(S(=O)(=O)N2CCC(C3CCNC3)CC2)cc1F (configuration not stated)
RP-LC retention time: 651 s

Cc1nc(C)c(C(=O)N2CCC(c3noc(-c4ccccn4)n3)C2)s1 (configuration not stated)
RP-LC retention time: 648 s

CNC(=O)c1c(NC(=O)c2ccc(N(C)C)cc2)sc2c1CCC2
RP-LC retention time: 1030 s

CN(C(=O)c1cn(-c2ccc(-c3nc(C4CC4)no3)cn2)cn1)C1CCCCC1
RP-LC retention time: 971 s

Cn1cnc(S(=O)(=O)N2CCC(Cc3nncn3Cc3ccccc3)C2)c1 (configuration not stated)
RP-LC retention time: 614 s

Cc1cccc(Cn2c(=O)n(CCNC(=O)C3(c4ccccc4)CC3)c3ncccc32)c1
RP-LC retention time: 953 s

O=C(Nc1cccc(Cl)c1)C1CCN(c2nccnc2Sc2ccccc2)CC1
RP-LC retention time: 1170 s

OC(CN1CCN(c2cccc(Cl)c2)CC1)c1ccc2c(c1)OCO2 (configuration not stated)
RP-LC retention time: 690 s

Cc1ccc(-c2nc3ncccn3c2NCc2ccccc2)cc1C
RP-LC retention time: 785 s

Cc1cccc(Cn2nc3ccc(S(=O)(=O)N4CCCC4)cn3c2=O)c1
RP-LC retention time: 881 s

Cc1nn2c(CNC(=O)Cc3cccc(C(F)(F)F)c3)c(C)nc2s1
RP-LC retention time: 679 s

O=C(Cn1nc2c(cc1=O)CCCCC2)NCCc1c[nH]c2ccc(F)cc12
RP-LC retention time: 794 s

Cc1cc(C)cc(C(=O)N2CCCC(C(=O)NCc3ccco3)C2)c1 (configuration not stated)
RP-LC retention time: 798 s

CN1CCN(c2ncncc2N2CCC(C(=O)N3CCCCC3)CC2)CC1
RP-LC retention time: 557 s

CN(C)CCNC(=O)c1nc(N2CCSCC2)c2cnn(C)c2n1
RP-LC retention time: 560 s

CCn1c(CNC(=O)C2CCC2)nc2c1CN(S(=O)(=O)c1ccc(Cl)cc1)CC2
RP-LC retention time: 692 s

CC(=O)c1cccc(NC(=O)c2noc3c2CCCCC3)c1
RP-LC retention time: 977 s

O=C(NCc1ccco1)N1c2ccccc2CC1c1nc(C2CC2)no1 (configuration not stated)
RP-LC retention time: 891 s

CC1CCN(C(=O)c2ccc(OCC3CCCN(C(=O)c4ccc(F)cc4)C3)cc2)CC1 (configuration not stated)
RP-LC retention time: 995 s

O=C(COc1ccc(Cl)cc1)NCC(=O)N1CCCc2ccccc21
RP-LC retention time: 910 s

CCOc1ccccc1NC(=O)C1CCN(S(=O)(=O)c2ccc3c(c2)sc(=O)n3CC)CC1
RP-LC retention time: 922 s

Cc1nc(CC(=O)Nc2ccc(F)cc2Cl)sc1C(=O)NC1CC1
RP-LC retention time: 740 s

COc1cccc(COC(=O)C2=CN(Cc3ccccc3)S(=O)(=O)N=C2C)c1
RP-LC retention time: 1090 s

Cc1cccc(N2CCN(S(=O)(=O)c3cc4n(c3)CCCNC4=O)CC2)c1
RP-LC retention time: 758 s

CCCN1C(=O)c2c(C(=O)N(C)Cc3ccccc3)ncn2CC1(C)C(=O)NCc1ccc(C)cc1 (configuration not stated)
RP-LC retention time: 793 s

Cc1ccc(-n2ccn3cc(-c4ccc(F)cc4)nc3c2=O)cc1Cl
RP-LC retention time: 924 s

CNC(=O)N1CCCC1c1nc(C2CN(C(=O)c3cccn3C)C2)no1 (configuration not stated)
RP-LC retention time: 629 s

CCOC(=O)c1c(C)oc2nc(C)nc(Nc3cc(C)ccc3OC)c12
RP-LC retention time: 1350 s

O=C(NCC1CCN(Cc2ccccc2)CC1)C(=O)Nc1ccc(OC(F)(F)F)cc1
RP-LC retention time: 626 s

COc1ccc(CNC(=O)c2c(C)sc3ccn(CC(C)C)c(=O)c23)cc1OC
RP-LC retention time: 865 s

Cc1ccc(Sc2nccnc2N2CCCC(C(=O)NCC3CCCO3)C2)cc1 (configuration not stated)
RP-LC retention time: 917 s

COC(=O)N1CCN(c2ccc(-c3noc(C(F)(F)F)n3)cn2)CC1
RP-LC retention time: 904 s

CCN1CCCn2cc(S(=O)(=O)Nc3ccc(F)c(F)c3)cc2C1=O
RP-LC retention time: 768 s

CCn1ncc2ccc(C(=O)NC)cc21
RP-LC retention time: 608 s

CCn1ncc(Cl)c1C(=O)N1CCCC1c1cccc(F)c1 (configuration not stated)
RP-LC retention time: 922 s

CNC(=O)C1CCCN(c2nc3ncn(CC(=O)NCc4ccc(Cl)cc4)c(=O)c3s2)C1 (configuration not stated)
RP-LC retention time: 666 s

CCOc1cccc(CNS(=O)(=O)c2cc3c(s2)CCN(C(=O)C2CCC2)C3)c1
RP-LC retention time: 940 s

Cc1cc(C)n(CCC(=O)N2CCC(n3c(C)cnc3C)C2)n1 (configuration not stated)
RP-LC retention time: 563 s

O=C(Cn1cc(S(=O)(=O)N2CCCCC2)ccc1=O)N1CCCc2ccccc21
RP-LC retention time: 846 s

CCOc1ccc2nc(NC(=O)Cn3nc(C(=O)N4CCCC4)c4ccccc43)sc2c1
RP-LC retention time: 894 s

CCC(=O)N1CCc2cc(N3CC(C(=O)NCC4CC4)CC3=O)ccc21 (configuration not stated)
RP-LC retention time: 652 s

Cc1ccc(CN2N=C(C(=O)N3CCOCC3)S(=O)(=O)c3ccc(C)cc32)cc1
RP-LC retention time: 907 s

Cc1oc2ccn(Cc3ccc(F)cc3)c(=O)c2c1C(=O)NCc1cc(F)cc(F)c1
RP-LC retention time: 1130 s

CC1(C)CC(=O)C2=C(C1)Nc1ccccc1N(CC(=O)N1CCOCC1)C2c1cccs1 (configuration not stated)
RP-LC retention time: 721 s

Cc1oc(-c2[nH]ncc2C(=O)N2CCOCC2)cc1S(=O)(=O)Nc1ccccc1
RP-LC retention time: 655 s

O=C(Nc1ccccc1Cl)N1CCN(c2cnn3cnnc3c2)CC1
RP-LC retention time: 625 s

COc1ccc(C2(C(=O)N3CCC(Cc4ccc(COc5ccncc5)cc4)CC3)CC2)cc1
RP-LC retention time: 750 s

COC(=O)c1cc(OCC(=O)NCc2ccc3c(c2)OCO3)c2cc(F)ccc2n1
RP-LC retention time: 785 s

Cc1cc(C)c(NC(=O)C2CCCN(c3nnc(C)c4c(C)n(-c5ccccc5)nc34)C2)c(C)c1 (configuration not stated)
RP-LC retention time: 769 s

CCC(C)NC(=O)C1CCN(Cc2cn(C)c3ccc(Cl)cc23)CC1 (configuration not stated)
RP-LC retention time: 673 s

Cc1nc(-c2ccccc2)nn1C1CCN(S(=O)(=O)c2cn(C)cn2)C1 (configuration not stated)
RP-LC retention time: 632 s

COc1cc(NS(=O)(=O)c2ccc(Nc3nc(-c4ccc(C)cc4)cs3)cc2)nc(OC)n1
RP-LC retention time: 1100 s

CN(CCc1noc(-c2ccc(F)cc2)n1)C(=O)NCc1ccccc1
RP-LC retention time: 839 s

O=C(Nc1cccc(Cl)c1)N1CCC(n2cnnc2C2CC2)C1 (configuration not stated)
RP-LC retention time: 658 s

O=C(NCc1cccnc1)C1c2ccccc2C(=O)N1Cc1ccc2c(c1)OCO2 (configuration not stated)
RP-LC retention time: 609 s

COc1ccc(NC(=O)Cc2nnc(-c3ccc4ncccc4c3)o2)cc1OC
RP-LC retention time: 655 s

COc1ccc(C2C(C(=O)NCCN(C)C)c3cc(OC)c(OC)cc3C(=O)N2C)cc1 (configuration not stated)
RP-LC retention time: 597 s

O=C(c1cccn2c(=O)c3c4c(sc3nc12)CCCC4)N1CCN(c2ccccn2)CC1
RP-LC retention time: 656 s

CCOc1ncccc1CNC(=O)c1sccc1C
RP-LC retention time: 822 s

CCC(C)C(NC(=O)Cc1ccccc1F)C(=O)Nc1nc2ccccc2[nH]1 (configuration not stated)
RP-LC retention time: 736 s

Cc1cccc(NC(=O)CN2CCN(Cc3ccc(F)cc3)C(=O)C2=O)c1C
RP-LC retention time: 732 s

FC(F)(F)c1ccc(/C=C/c2nc(COc3ccc(CCCCn4ccnn4)cc3)co2)cc1
RP-LC retention time: 1170 s

CC(C)c1ccc(CN2CC(c3nc(CCN(C)S(C)(=O)=O)no3)C2)cc1
RP-LC retention time: 664 s

Cc1ccc(S(=O)(=O)N2CC(=O)N(CCC(C)C)C(C)(C(=O)NCc3ccccc3)C2)cc1 (configuration not stated)
RP-LC retention time: 1040 s

Cc1ccc(-c2nc(C3CC(=O)N(c4ccc(F)cc4)C3)no2)cc1 (configuration not stated)
RP-LC retention time: 1030 s

CCOC(=O)c1nc(N2CCN(c3cc(Cl)ccc3C)CC2)c2ccccc2n1
RP-LC retention time: 1140 s

COc1ccccc1CNC(=O)CN1CCN(Cc2ccccc2)C1=O
RP-LC retention time: 773 s

COC(=O)c1ccc(-c2nc3cnccn3c2Nc2cccc(C(F)(F)F)c2)cc1
RP-LC retention time: 945 s

CC1(C)CC(O)CC(C)(C)N1CC(O)COc1ccc(Cl)cc1Cl (configuration not stated)
RP-LC retention time: 590 s

Cc1nn(-c2ccccc2)c(C)c1S(=O)(=O)N1CCC(C(=O)N2CCCc3ccccc32)CC1
RP-LC retention time: 1040 s

Cn1nc(-c2nc(Cc3ccccc3)no2)c2c1CCN(C(=O)C1(c3ccccc3)CC1)C2
RP-LC retention time: 962 s

COc1ccc(OC)c(NC(=O)N(C)CCc2noc(COc3ccccc3)n2)c1
RP-LC retention time: 936 s

CC(C)c1ccc(-c2nc3ncccn3c2NCc2ccccc2)cc1
RP-LC retention time: 859 s

O=c1c2cc3c(cc2nc(SCc2nc(-c4ccc(F)cc4)no2)n1-c1ccc(F)cc1)OCO3
RP-LC retention time: 1170 s

CCCCN(CC)CCNC(=O)C1CCC(=O)N(c2ccc(OC)cc2)C1c1ccc(F)cc1 (configuration not stated)
RP-LC retention time: 633 s

O=C(NCCc1ccco1)C1CCCN(c2ccc(=O)n(-c3ccc(F)cc3)n2)C1 (configuration not stated)
RP-LC retention time: 773 s

COCCNC(=O)C(=O)NCC1CCN(C(=O)c2ccccc2F)CC1
RP-LC retention time: 609 s

Cc1cccc(N2CCn3c2nc2c3c(=O)n(CC(=O)O)c(=O)n2C)c1
RP-LC retention time: 689 s

CCN(CC)S(=O)(=O)c1ccc2c(c1)cc(C(=O)N1CCN(c3ncccn3)CC1)n2C
RP-LC retention time: 880 s

OC[C@@H]1CN(Cc2ccncc2F)C[C@H]1c1nc(C2CC2)no1
RP-LC retention time: 562 s

CCc1nc2c(c(=O)n1CC(=O)NCc1ccccc1)CN(Cc1ccccc1)CC2
RP-LC retention time: 629 s

Cc1cc(C)n(C(=O)c2cn(-c3ccc(S(=O)(=O)N4CCCC(C)C4)cn3)cn2)n1 (configuration not stated)
RP-LC retention time: 1020 s

CC1=C(c2ccc(C)cc2)S(=O)(=O)N=C1N1CCC(NC(=O)Cc2ccsc2)CC1
RP-LC retention time: 867 s
